Patent US6531603B1, “Polymorphic forms of 6-[4-(1-cyclohexyl-1H-tetrazol-5-yl)butoxy]-3,4-dihydro-2(1H)-quinolinone” (priority 2001, dated 2003)

How the values were obtained:
bioavailability = type: in vivo; conditions: Form A as prepared by the procedures of the '479 patent
[1] = aqueous solubility of cilostazol polymorphic forms; type: physicochemical
[2] = stability of the crystalline form; type: physicochemical
[3] = solid state phase transformation of disturbed sample on heating by DSC; type: physicochemical; conditions: sample disturbed with scratching / stressed, DSC heating from 30° C. to approximately 200° C. at 10° C. per minute, followed by melt at about 160° C. (Form A)
Text: Characterization of Form A of cilostazol, Form B of cilostazol, and Form C of cilostazol was further completed using DSC thermograms, shown in FIGS. 3, 4, and 5, respectively, with DSC thermograms for combinations of Form A and Form B; Form B and Form C; and Forms A, B, and C are shown in FIGS. 6, 7, and 8 respectively. DSC data were generated using a Mettler-Toledo DSC 821^e (Columbus, Ohio) with a Julabo FT900 intercooler chiller (Julabo Company; Allentown, Pa.). In general, samples were analyzed in a vented, sealed aluminum pan. Because the endothermic peak may vary depending upon the rate of heating and the calibration and precision of the instrument, with the amount of peak variation dependent upon the heating rate used, all thermograms included herein were run under the same, consistent conditions: heating at 10° C. per minute under a nitrogen purge at 40 mL/minute. The resultant sample of Example 1A was disturbed with scratching, which caused the cilostazol sample to undergo a solid state phase transformation at approximately 119° C. followed by an endotherm of melt at approximately 160° C. (Form A) during heating by DSC from 30° C. to approximately 200° C. at 10° C. per minute. When the sample is stressed and reheated (as detailed in Example 2A), the sample undergoes a solid state phase transformation at approximately 147° C. followed by an endotherm of melt at about 160° C. […]

O=C1CCc2cc(OCCCCc3nnnn3C3CCCCC3)ccc2N1 [Form A, 6-[4-(1-cyclohexyl-1H-tetrazol-5-yl)butoxy]-3,4-dihydro-2(1H)-quinolinone]
bioavailability (bioavailability): low
aqueous solubility ([1]; Form A as prepared by the procedures of the '479 patent): low

O=C1CCc2cc(OCCCCc3nnnn3C3CCCCC3)ccc2N1 [Form B, 6-[4-(1-cyclohexyl-1H-tetrazol-5-yl)butoxy]-3,4-dihydro-2(1H)-quinolinone]
solubility relative to Form A ([1]; inferred from lower melting point in DSC thermogram (FIG. 8), solubility itself not measured): more soluble than Form A
stability of the polymorphic form [2]: stable
solid state phase transformation temperature (to Form A) ([3]; listed as Example 1A): approximately 119 °C

O=C1CCc2cc(OCCCCc3nnnn3C3CCCCC3)ccc2N1 [Form C, 6-[4-(1-cyclohexyl-1H-tetrazol-5-yl)butoxy]-3,4-dihydro-2(1H)-quinolinone]
solid state phase transformation temperature (to Form A) ([3]; listed as Example 2A): approximately 147 °C
